Experimental data published in ChEMBL document CHEMBL1201862, “PubChem BioAssay data set” (2004).
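Five compound concentrations were applied to cells in 96-well plates for 48 hours; endpoints were derived by simple linear interpolation of the resulting dose-response curve. At the GI50, growth is halved.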 Activity calls are given as the source filed them. No stated cut-off is given here; in the data, active = GI50 up to about 1.1 µM and inactive = higher.

What was measured:
Assay in all cases: growth of human tumour cells (NCI), 48 h
[1] = system: HT-29
[2] = system: IGROV-1
[3] = system: RPMI-8226
[4] = system: SF-539
[5] = system: 786-0
[6] = system: HL-60
[7] = system: HOP-92
[8] = system: SF-295
[9] = system: M14
[10] = system: CCRF-CEM
[11] = system: NCI-H522
[12] = system: HCC 2998
[13] = system: HCT-116
[14] = system: HOP-18
[15] = system: KM12
[16] = system: OVCAR-5
[17] = system: A549

SMILES	GI50 [1]	GI50 [2]	GI50 [3]	GI50 [4]	GI50 [5]	GI50 [6]	GI50 [7]	GI50 [8]	GI50 [9]	GI50 [10]	GI50 [11]	GI50 [12]	GI50 [13]	GI50 [14]	GI50 [15]	GI50 [16]	GI50 [17]
COc1ccc(-c2cc(O)c3cc(Cl)ccc3n2)cc1	> 100 µM (inactive)	> 100 µM (inactive)	> 100 µM (inactive)	> 100 µM (inactive)	> 100 µM (inactive)	> 100 µM (inactive)	> 100 µM (inactive)	> 100 µM (inactive)	> 100 µM (inactive)	> 100 µM (inactive)	> 100 µM (inactive)	> 100 µM (inactive)	> 100 µM (inactive)	54.5 µM (inactive)	91.8 µM (inactive)	> 100 µM (inactive)	–
CCCCc1nccc2c(C)c3[nH]c4ccccc4c3cc12	2.62 µM (inactive)	3.33 µM (inactive)	2 µM (inactive)	2.45 µM (inactive)	–	1.83 µM (inactive)	3.74 µM (inactive)	2.68 µM (inactive)	–	2.85 µM (inactive)	1.91 µM (inactive)	3.44 µM (inactive)	1.77 µM (inactive)	0.486 µM (active)	3.09 µM (inactive)	6.44 µM (inactive)	3.87 µM (inactive)
O=C(CCc1nnc2s/c(=C\c3ccccc3Cl)c(=O)n12)Nc1cc(Cl)ccc1Cl	> 100 µM (inactive)	> 100 µM (inactive)	> 100 µM (inactive)	> 100 µM (inactive)	> 100 µM (inactive)	> 100 µM (inactive)	> 100 µM (inactive)	> 100 µM (inactive)	> 100 µM (inactive)	> 100 µM (inactive)	> 100 µM (inactive)	> 100 µM (inactive)	> 100 µM (inactive)	> 100 µM (inactive)	> 100 µM (inactive)	> 100 µM (inactive)	> 100 µM (inactive)
CC1CC(c2ccc(Cl)c(Cl)c2)=Nc2ccccc2S1 (stereo unspecified)	> 100 µM (inactive)	> 100 µM (inactive)	> 100 µM (inactive)	> 100 µM (inactive)	> 100 µM (inactive)	> 100 µM (inactive)	> 100 µM (inactive)	> 100 µM (inactive)	> 100 µM (inactive)	41.9 µM (inactive)	> 100 µM (inactive)	> 100 µM (inactive)	> 100 µM (inactive)	> 100 µM (inactive)	> 100 µM (inactive)	> 100 µM (inactive)	> 100 µM (inactive)
C[n+]1c2ccccc2c(NC(CCCNC(=N)N)C(=O)O)c2ccccc21 (stereo unspecified)	> 100 µM (inactive)	> 100 µM (inactive)	7.55 µM (inactive)	> 100 µM (inactive)	> 100 µM (inactive)	39.1 µM (inactive)	> 100 µM (inactive)	> 100 µM (inactive)	> 100 µM (inactive)	–	99.1 µM (inactive)	> 100 µM (inactive)	> 100 µM (inactive)	> 100 µM (inactive)	> 100 µM (inactive)	> 100 µM (inactive)	> 100 µM (inactive)
COc1ccc2[nH]c3c(c2c1)[C@H]1CCC(C(C)(C)C)C[C@H]1[C@H]1C(=O)N(c2ccccc2)C(=O)[C@@H]31 (stereo partly specified)	> 100 µM (inactive)	> 58.7 µM (inactive)	33.3 µM (inactive)	5.4 µM (inactive)	3.86 µM (inactive)	39.4 µM (inactive)	6.21 µM (inactive)	7.18 µM (inactive)	8.22 µM (inactive)	18.9 µM (inactive)	12.1 µM (inactive)	36 µM (inactive)	12.4 µM (inactive)	25.6 µM (inactive)	> 43.4 µM (inactive)	> 60.1 µM (inactive)	12.7 µM (inactive)
COC(=O)/C(C=O)=C/Sc1ccccc1	25.5 µM (inactive)	13.9 µM (inactive)	65.5 µM (inactive)	18 µM (inactive)	15.2 µM (inactive)	45.5 µM (inactive)	52.6 µM (inactive)	30.1 µM (inactive)	16.6 µM (inactive)	57.5 µM (inactive)	11.7 µM (inactive)	37.8 µM (inactive)	22.5 µM (inactive)	> 100 µM (inactive)	24.1 µM (inactive)	37.6 µM (inactive)	11.3 µM (inactive)
O=C1C(Cl)=C(Cl)C(=O)N1C1C2CC3CC(C2)CC1C3 (stereo unspecified)	> 100 µM (inactive)	> 100 µM (inactive)	27 µM (inactive)	> 100 µM (inactive)	> 100 µM (inactive)	24.5 µM (inactive)	> 100 µM (inactive)	> 100 µM (inactive)	> 100 µM (inactive)	19.3 µM (inactive)	27.9 µM (inactive)	> 100 µM (inactive)	> 100 µM (inactive)	> 100 µM (inactive)	–	> 100 µM (inactive)	> 100 µM (inactive)
CC/C(SC)=[N+](\C)[O-]	> 100 µM (inactive)	> 100 µM (inactive)	> 93.1 µM (inactive)	> 100 µM (inactive)	> 100 µM (inactive)	17.9 µM (inactive)	> 100 µM (inactive)	> 100 µM (inactive)	> 100 µM (inactive)	15.5 µM (inactive)	> 43.1 µM (inactive)	> 100 µM (inactive)	> 46.9 µM (inactive)	> 100 µM (inactive)	> 100 µM (inactive)	> 100 µM (inactive)	> 100 µM (inactive)
CC1=NOC(=O)/C1=C/c1ccc([N+](=O)[O-])cc1	> 100 µM (inactive)	> 100 µM (inactive)	–	> 100 µM (inactive)	> 100 µM (inactive)	> 100 µM (inactive)	> 100 µM (inactive)	> 100 µM (inactive)	> 100 µM (inactive)	> 100 µM (inactive)	> 100 µM (inactive)	> 100 µM (inactive)	> 100 µM (inactive)	> 100 µM (inactive)	> 100 µM (inactive)	> 100 µM (inactive)	> 100 µM (inactive)
O=c1cc(-c2ccc(Cl)cc2)oc2cc(OCCCOc3ccc4c(=O)cc(-c5ccc(Cl)cc5)oc4c3)ccc12	> 100 µM (inactive)	> 100 µM (inactive)	> 100 µM (inactive)	> 100 µM (inactive)	> 100 µM (inactive)	> 100 µM (inactive)	> 100 µM (inactive)	> 100 µM (inactive)	> 100 µM (inactive)	> 100 µM (inactive)	> 100 µM (inactive)	> 100 µM (inactive)	> 100 µM (inactive)	> 100 µM (inactive)	> 100 µM (inactive)	> 100 µM (inactive)	> 100 µM (inactive)
CC(=O)c1sc(Nc2nnc(-c3ccc(-c4nnc(Nc5nc(C)c(C(C)=O)s5)o4)cc3)o2)nc1C	> 100 µM (inactive)	> 100 µM (inactive)	> 100 µM (inactive)	–	> 100 µM (inactive)	> 100 µM (inactive)	> 100 µM (inactive)	> 100 µM (inactive)	> 100 µM (inactive)	> 100 µM (inactive)	> 10 µM (inactive)	> 100 µM (inactive)	> 100 µM (inactive)	> 100 µM (inactive)	> 10 µM (inactive)	> 10 µM (inactive)	> 10 µM (inactive)
O=C(CC1(O)C(=O)Nc2ccc(Br)cc21)c1cccc([N+](=O)[O-])c1 (stereo unspecified)	32.7 µM (inactive)	–	18.3 µM (inactive)	–	42.7 µM (inactive)	27.7 µM (inactive)	20.8 µM (inactive)	59 µM (inactive)	48.8 µM (inactive)	24.1 µM (inactive)	22.2 µM (inactive)	65 µM (inactive)	–	23.6 µM (inactive)	42.6 µM (inactive)	> 100 µM (inactive)	> 100 µM (inactive)
O=S1(=O)C(=C(c2ccccc2)c2ccccc2)S(=O)(=O)c2ccccc21	> 100 µM (inactive)	> 95.5 µM (inactive)	> 100 µM (inactive)	27.5 µM (inactive)	–	> 100 µM (inactive)	20.6 µM (inactive)	33.8 µM (inactive)	–	> 100 µM (inactive)	> 100 µM (inactive)	97.1 µM (inactive)	> 100 µM (inactive)	51.6 µM (inactive)	> 100 µM (inactive)	> 100 µM (inactive)	> 100 µM (inactive)
CCC12CCC(O)C1N(C)CCC2Sc1ccccc1 (stereo unspecified)	34.8 µM (inactive)	> 100 µM (inactive)	59.3 µM (inactive)	> 100 µM (inactive)	> 100 µM (inactive)	22.9 µM (inactive)	28.6 µM (inactive)	76.2 µM (inactive)	> 100 µM (inactive)	77.4 µM (inactive)	> 100 µM (inactive)	29.9 µM (inactive)	70 µM (inactive)	46.7 µM (inactive)	52.8 µM (inactive)	–	> 100 µM (inactive)
O=C(O)C1c2ccccc2C(C(=O)O)c2ccccc21 (stereo unspecified)	> 100 µM (inactive)	> 100 µM (inactive)	> 100 µM (inactive)	> 100 µM (inactive)	> 100 µM (inactive)	> 100 µM (inactive)	> 100 µM (inactive)	> 100 µM (inactive)	> 100 µM (inactive)	> 100 µM (inactive)	> 100 µM (inactive)	> 100 µM (inactive)	> 100 µM (inactive)	> 100 µM (inactive)	> 100 µM (inactive)	> 100 µM (inactive)	> 100 µM (inactive)
Nc1ccn(CC(CO)CC(c2ccccc2)P(=O)(O)O)c(=O)n1 (stereo unspecified)	> 100 µM (inactive)	> 100 µM (inactive)	> 100 µM (inactive)	> 100 µM (inactive)	> 100 µM (inactive)	> 100 µM (inactive)	> 100 µM (inactive)	> 100 µM (inactive)	> 100 µM (inactive)	> 100 µM (inactive)	> 100 µM (inactive)	> 100 µM (inactive)	> 100 µM (inactive)	< 0.01 µM (active)	> 100 µM (inactive)	> 100 µM (inactive)	> 100 µM (inactive)
